The assay has as its system male patients diagnosed with autism. The experiment in a line: Study HT 02-121: Autism Diagnostic Observation Schedule (ADOS-2). Particulars: for ADOS-2 Restricted and Repetitive Behavior Mean Change from Screening / ADOS-2 Restricted and Repetitive Behavior Treatment effect versus placebo / ADOS-2 Restricted and Repetitive Behavior change, median / ADOS-2 Social Affect Mean Change from Screening / ADOS-2 Social Affect Treatment effect versus placebo / ADOS-2 Social Affect change, median / ADOS-2 Total Score Mean Change from Screening / ADOS-2 Total Score Treatment effect versus placebo / ADOS-2 Total Score change from Screening, median: Week 4/LOCF. Type of assay: in vivo, human. The procedure:
This clinical study was a randomized double-blind, placebo-controlled two-cohort, 4-week dose-escalation study that incorporated two open-label treatment groups to assess the safety and efficacy of L1-79 100 mg and 200 mg TID in male patients between the ages of […] years of age diagnosed with autism. The first cohort of 20 patients was comprised of three groups of patients: The first group of five patients received open-label L1-79 100 mg TID and underwent PK and EKG assessments. The remaining two groups in this cohort consisted of 15 patients randomized on a 2:1 basis to receive L1-79 100 mg TID or placebo. The PK and safety data from the open-label L1-79 100 mg TID group was submitted to FDA for review and acceptance before the second cohort was enrolled. The second cohort was procedurally identical to the first. The second cohort of 20 patients was comprised of the same three groups of patients but a dose of 200 mg TID was used instead of 100 mg TID. The key inclusion criteria were as follows: (1) males between 13 and 21 years of age, (2) DSM-5 compliant diagnosis of autism spectrum disorder, confirmed by the Autistic Diagnosis Interview Review (ADIR), and by an ADOS-2 score consistent with a diagnosis of autism, (3) must have been stable on no more than one concomitant medication and no planned changes in psychosocial interventions during the study.
The primary efficacy endpoint was the determination of the clinical improvement by the investigator as documented by the Clinical Global Impression (CGI) rating scales. Additional efficacy endpoints included: (1) changes from baseline in the Socialization and Communication Domains of the Vineland Adaptive Behavior Scales, Second Edition (VABS II) parent/caregiver rating form, (2) changes from baseline in the ADOS-2 Total Score and subscores, (3) changes in the Social Responsiveness Scale, Second Edition (SRS-2) Total Score and subscales, (4) changes in the ABC-C domains, (5) changes in the Repetitive Behavior Scale-Revised (RBS-R) Total Score and subscales. Given the exploratory design of this study only descriptive statistics were planned.
In the preliminary study, all forms were completed at the study site in the presence of the investigator. In Cohort 1 of the present study, the VABS-II, SRS-2, ABC-C and RBS-R were filled out at home by the patient/patient's families prior to treatment visits and returned at treatment visits in order to expedite the execution of the study.

As for `CC(N)(Cc1ccc(O)cc1)C(=O)O` (racemic) [L1-79, α-methyl-DL-tyrosine], under “DB 100 mg TID”, the “ADOS-2 Restricted and Repetitive Behavior Mean Change from Screening” value is 0.3; the “ADOS-2 Restricted and Repetitive Behavior Treatment effect versus placebo” value is reported as 0.5; the “ADOS-2 Restricted and Repetitive Behavior change, median” value is given as −1, 0, 1; the “ADOS-2 Social Affect Mean Change from Screening” value was −0.9. For the same compound, for the setting “DB 100 mg TID”, the “ADOS-2 Social Affect Treatment effect versus placebo” value is −1.0; the “ADOS-2 Social Affect change, median” value is listed as −2, 0, 1; the “ADOS-2 Total Score Mean Change from Screening” value was −0.6; the “ADOS-2 Total Score Treatment effect versus placebo” value is listed as −0.6. For the same compound, the “ADOS-2 Total Score change from Screening, median” value (DB 100 mg TID) was −1, 0, 0. Where the note is “DB 200 mg TID”, the “ADOS-2 Restricted and Repetitive Behavior Mean Change from Screening” value is listed as −1.0; the “ADOS-2 Restricted and Repetitive Behavior Treatment effect versus placebo” value is recorded as −0.9; the “ADOS-2 Restricted and Repetitive Behavior change, median” value is −2, −1, 0; the “ADOS-2 Social Affect Mean Change from Screening” value is 0.0. Moreover, for the setting “DB 200 mg TID”, the “ADOS-2 Social Affect Treatment effect versus placebo” value is given as −0.1; the “ADOS-2 Social Affect change, median” value was −1, 1, 1; the “ADOS-2 Total Score Mean Change from Screening” value is on record as −1.0; the “ADOS-2 Total Score Treatment effect versus placebo” value was −1.0. Further, the “ADOS-2 Total Score change from Screening, median” value (DB 200 mg TID) is given as −1, −1, 0. For the same compound, the “improvement from baseline in ADOS-2 scores” value (less than one month of treatment) is on record as “nearly one point”.

Values taken from US12453709B2, “Compositions and methods for treating autism” (priority 2013, dated 2025).
